Assay results taken from patent publication US20210085711A1 (Japan Tobacco Inc., priority 2017, published 2021).

What was measured:
Format in all cases: in vivo, human
[1] = test system: patients with hypermenorrhea and/or patients with hypermenorrhea-associated gynecologic diseases (iron-deficiency anemia patients); test: Phase II clinical trial of JTT-751: total iron-binding capacity (TIBC)
Protocol: (§1) This test was a three-stage safety and efficacy clinical trial at multi-facilities. The first stage was a pre-observation period (Day −40 to Day −1), the second stage was an administration period (Day 1 to Day 48) (efficacy and safety evaluation period), and the third stage was a post-observation period (Day 49 to Day 63) (efficacy and safety evaluation period). The safety evaluation and efficacy evaluation were performed by multi-facility collaboration, placebo control, random allocation, double-blind trial, and parallel group comparison test.
(§2) (1) Japanese patients who are 20 or more and less than 65 years old at the time of agreement and can visit an outpatient clinic (2) Patients who have an Hb value (measured using HemoCue® Hb 201 DM analyzer in the institute of clinical practice) of 7.0 g/dL or more and less than 11.0 g/dL on both the observation start date and Week 0, and the difference between the two days is 1.0 g/dL or less (3) Patients with a TIBC of 360 μg/dL or more or a serum ferritin value of less than 12 ng/mL on the observation start date
(§3) The administration period of the trial drug is seven weeks which starts from the next day of the Week 0 visit to the day before the Week 7 visit, provided that the trial drug is not taken on the scheduled Week 3 visit.
(2) Subsidiary evaluation items 1) Erythrocyte-related examination values and amount of change from Week 0 at each observation date 2) Iron-related test values and amount of change from Week 0 at each observation date 3) Achievement rate of target Hb value (female; 12.0 g/dL or more, male; 13.0 g/dL or more) at each observation date 4) Achievement rate of 1.0 g/dL or more and achievement rate of 2.0 g/dL or more in Hb value improvement from Week 0 at each observation date 5) Average daily change of Hb value from Week 0 to each observation date
(§4) The blood hemoglobin value (Hb), the serum iron level, the serum ferritin value, the total iron-binding capacity (TIBC) and the transferrin saturation rate (TSAT), and the mean corpuscular volume (MCV) were each examined at the observation start date, Week 0, Week 3, Week 7, the end of administration and the consultation at nine weeks after Week 0; the hepcidin concentration (Hepcidin 25) and the serum soluble transferrin receptor concentration (sTfR) were each examined on Week 0, Week 3 and Week 7 and at the end of administration; and the C-terminal FGF23 value (cFGF23) and the intact FGF23 value (iFGF23) were each examined on Week 0 and Week 7 and at the end of administration.

[2] = test system: patients with hypermenorrhea and/or patients with hypermenorrhea-associated gynecologic diseases (iron-deficiency anemia patients); test: Phase II clinical trial of JTT-751: C-terminal FGF23 value (cFGF23)
Protocol: as §1, §2, §3, §4

[3] = test system: patients with hypermenorrhea and/or patients with hypermenorrhea-associated gynecologic diseases (iron-deficiency anemia patients); test: Phase II clinical trial of JTT-751: intact FGF23 value (iFGF23)
Protocol: as §1, §2, §3, §4

[4] = 250 mg/day, 9 weeks after Week 0
[5] = 250 mg/day, End of administration
[6] = 500 mg/day, 9 weeks after Week 0
[7] = 500 mg/day, End of administration
[8] = 1000 mg/day, 9 weeks after Week 0
[9] = 1000 mg/day, End of administration
[10] = 1500 mg/day, 9 weeks after Week 0
[11] = 1500 mg/day, End of administration
[12] = End of administration, JTT-751 250 mg group
[13] = End of administration, JTT-751 500 mg group
[14] = End of administration, JTT-751 1000 mg group
[15] = End of administration, JTT-751 1500 mg group
[16] = Week 0 (baseline), JTT-751 250 mg group
[17] = Week 0 (baseline), JTT-751 500 mg group
[18] = Week 0 (baseline), JTT-751 1000 mg group
[19] = Week 0 (baseline), JTT-751 1500 mg group

Ferric citrate [JTT-751]
TIBC, profile from the baseline (value at Week 0), Mean [1, 4]: -42.8 µg/dL
TIBC, profile from the baseline (value at Week 0), Median [1, 4]: -39.0 µg/dL
TIBC, profile from the baseline (value at Week 0), Mean [1, 5]: -60.1 µg/dL
TIBC, profile from the baseline (value at Week 0), Median [1, 5]: -62.0 µg/dL
TIBC, profile from the baseline (value at Week 0), Mean ([1]; 250 mg/day, Week 3): -28.3 µg/dL
TIBC, profile from the baseline (value at Week 0), Median ([1]; 250 mg/day, Week 3): -24.0 µg/dL
TIBC, profile from the baseline (value at Week 0), Mean ([1]; 250 mg/day, Week 7): -60.1 µg/dL
TIBC, profile from the baseline (value at Week 0), Median ([1]; 250 mg/day, Week 7): -62.0 µg/dL
TIBC, profile from the baseline (value at Week 0), Mean [1, 6]: -49.6 µg/dL
TIBC, profile from the baseline (value at Week 0), Median [1, 6]: -49.0 µg/dL
TIBC, profile from the baseline (value at Week 0), Mean [1, 7]: -61.7 µg/dL
TIBC, profile from the baseline (value at Week 0), Median [1, 7]: -49.5 µg/dL
TIBC, profile from the baseline (value at Week 0), Mean ([1]; 500 mg/day, Week 3): -30.9 µg/dL
TIBC, profile from the baseline (value at Week 0), Median ([1]; 500 mg/day, Week 3): -28.5 µg/dL
TIBC, profile from the baseline (value at Week 0), Mean ([1]; 500 mg/day, Week 7): -61.7 µg/dL
TIBC, profile from the baseline (value at Week 0), Median ([1]; 500 mg/day, Week 7): -49.5 µg/dL
TIBC, profile from the baseline (value at Week 0), Mean [1, 8]: -68.7 µg/dL
TIBC, profile from the baseline (value at Week 0), Median [1, 8]: -75.0 µg/dL
TIBC, profile from the baseline (value at Week 0), Mean [1, 9]: -80.4 µg/dL
TIBC, profile from the baseline (value at Week 0), Median [1, 9]: -70.0 µg/dL
TIBC, profile from the baseline (value at Week 0), Mean ([1]; 1000 mg/day, Week 3): -54.1 µg/dL
TIBC, profile from the baseline (value at Week 0), Median ([1]; 1000 mg/day, Week 3): -54.0 µg/dL
TIBC, profile from the baseline (value at Week 0), Mean ([1]; 1000 mg/day, Week 7): -80.4 µg/dL
TIBC, profile from the baseline (value at Week 0), Median ([1]; 1000 mg/day, Week 7): -70.0 µg/dL
TIBC, profile from the baseline (value at Week 0), Mean [1, 10]: -63.0 µg/dL
TIBC, profile from the baseline (value at Week 0), Median [1, 10]: -68.5 µg/dL
TIBC, profile from the baseline (value at Week 0), Mean [1, 11]: -79.7 µg/dL
TIBC, profile from the baseline (value at Week 0), Median [1, 11]: -84.0 µg/dL
TIBC, profile from the baseline (value at Week 0), Mean ([1]; 1500 mg/day, Week 3): -60.7 µg/dL
TIBC, profile from the baseline (value at Week 0), Median ([1]; 1500 mg/day, Week 3): -70.0 µg/dL
TIBC, profile from the baseline (value at Week 0), Mean ([1]; 1500 mg/day, Week 7): -79.7 µg/dL
TIBC, profile from the baseline (value at Week 0), Median ([1]; 1500 mg/day, Week 7): -84.0 µg/dL
total iron-binding capacity (TIBC), time-dependent change ([1]; Week 0, Week 3 and Week 7): decreased along with the continuous administration
cFGF23, Mean [2, 5]: 214.72 RU/mL
cFGF23, Median [2, 5]: 158.50 RU/mL
cFGF23, Mean ([2]; 250 mg/day, Week 0 (baseline)): 779.17 RU/mL
cFGF23, Median ([2]; 250 mg/day, Week 0 (baseline)): 705.00 RU/mL
cFGF23, Mean ([2]; 250 mg/day, Week 7): 214.72 RU/mL
cFGF23, Median ([2]; 250 mg/day, Week 7): 158.50 RU/mL
cFGF23, Mean [2, 7]: 151.89 RU/mL
cFGF23, Median [2, 7]: 127.50 RU/mL
cFGF23, Mean ([2]; 500 mg/day, Week 0 (baseline)): 1011.06 RU/mL
cFGF23, Median ([2]; 500 mg/day, Week 0 (baseline)): 773.50 RU/mL
cFGF23, Mean ([2]; 500 mg/day, Week 7): 151.89 RU/mL
cFGF23, Median ([2]; 500 mg/day, Week 7): 127.50 RU/mL
cFGF23, Mean [2, 9]: 130.39 RU/mL
cFGF23, Median [2, 9]: 100.00 RU/mL
cFGF23, Mean ([2]; 1000 mg/day, Week 0 (baseline)): 675.16 RU/mL
cFGF23, Median ([2]; 1000 mg/day, Week 0 (baseline)): 564.00 RU/mL
cFGF23, Mean ([2]; 1000 mg/day, Week 7): 130.39 RU/mL
cFGF23, Median ([2]; 1000 mg/day, Week 7): 100.00 RU/mL
cFGF23, Mean [2, 11]: 114.92 RU/mL
cFGF23, Median [2, 11]: 94.20 RU/mL
cFGF23, Mean ([2]; 1500 mg/day, Week 0 (baseline)): 842.52 RU/mL
cFGF23, Median ([2]; 1500 mg/day, Week 0 (baseline)): 777.00 RU/mL
cFGF23, Mean ([2]; 1500 mg/day, Week 7): 114.92 RU/mL
cFGF23, Median ([2]; 1500 mg/day, Week 7): 94.20 RU/mL
C-terminal FGF23 value (cFGF23), time-dependent change ([2]; continuous administration): decreased along with the continuous administration
intact FGF23 value (iFGF23), time-dependent change ([3]; 1000 mg administration group and 1500 mg administration group): decreased along with the continuous administration of the JTT-751 tablet and improved
iFGF23, Mean [3, 12]: 34.74 pg/mL
iFGF23, Median [3, 12]: 33.65 pg/mL
iFGF23, Mean [3, 13]: 41.06 pg/mL
iFGF23, Median [3, 13]: 38.20 pg/mL
iFGF23, Mean [3, 14]: 33.62 pg/mL
iFGF23, Median [3, 14]: 30.40 pg/mL
iFGF23, Mean [3, 15]: 36.30 pg/mL
iFGF23, Median [3, 15]: 35.00 pg/mL
iFGF23, Mean [3, 16]: 36.73 pg/mL
iFGF23, Median [3, 16]: 33.90 pg/mL
iFGF23, Mean [3, 17]: 43.53 pg/mL
iFGF23, Median [3, 17]: 42.05 pg/mL
iFGF23, Mean [3, 18]: 41.93 pg/mL
iFGF23, Median [3, 18]: 42.50 pg/mL
iFGF23, Mean [3, 19]: 46.09 pg/mL
iFGF23, Median [3, 19]: 44.00 pg/mL
iFGF23, Mean ([3]; Week 7, JTT-751 250 mg group): 34.74 pg/mL
iFGF23, Median ([3]; Week 7, JTT-751 250 mg group): 33.65 pg/mL
iFGF23, Mean ([3]; Week 7, JTT-751 500 mg group): 41.06 pg/mL
iFGF23, Median ([3]; Week 7, JTT-751 500 mg group): 38.20 pg/mL
iFGF23, Mean ([3]; Week 7, JTT-751 1000 mg group): 33.62 pg/mL
iFGF23, Median ([3]; Week 7, JTT-751 1000 mg group): 30.40 pg/mL
iFGF23, Mean ([3]; Week 7, JTT-751 1500 mg group): 36.30 pg/mL
iFGF23, Median ([3]; Week 7, JTT-751 1500 mg group): 35.00 pg/mL
